Results: patent US20260007634A1, “PHARMACEUTICAL COMPOSITIONS FOR THE TREATMENT OF ALLERGIC DISEASES” (KINKI UNIVERSITY, priority 2022, published 2026)

Assays:
[1] = tested on: B cells collected from mice; assay: BAFF-induced differentiation into plasma cells (CD138 flow cytometry); type: cell-based, mouse; conditions: 100 ng/mL BAFF, 10 days; 100 μM mangiferin, 20 μM 1,3,5,6-tetrahydroxyxanthone, 10 μM others; vs BAFF-added group
Protocol: (§1) B cells collected from mice were cultured in RPMI 1640 medium for 1 day. Then, 100 μM mangiferin, 10 μM mangiferin 8a, 10 μM norathyriol, 20 μM 1,3,5,6-tetrahydroxyxanthone, 10 μM xanthohydrol, 10 μM α-mangostin, 10 μM of γ-mangostin were added to B cell, and after 1 day of culture, 100 ng/mL of BAFF was added, followed by 10 days of culture. After 10 days of culture, cells were stained with anti-CD138 antibody, a marker of plasma cells, and CD138 expression was measured using BD LSRFortessa.
In all figures, the horizontal axis represents the expression level of CD138 and the vertical axis represents the number of cells.

[2] = tested on: B cells collected from mice; assay: BAFF-induced differentiation into mature B cells (IgM/IgD flow cytometry); type: cell-based, mouse; conditions: 100 ng/mL BAFF, 10 days, 100 μM mangiferin, 20 μM 1,3,5,6-tetrahydroxyxanthone, 10 μM others
Protocol: as §1, with “anti-IgM and anti-IgD antibodies, markers” for “anti-CD138 antibody, a marker”, “B” for “plasma”, “the” for “CD138”, “expression of IgM and IgD” for “expression”, “LSRFortessa. Note that IgM negative and IgD negative indicates pre-B cells, IgM positive and IgD negative indicates immature B cells, and IgM positive and IgD positive indicates mature B cells.” for “LSRFortessa.”

NIK = biological target: T1, NIK (Mus musculus, UniProt Q9WUL6); assay: BAFF-induced NIK activation in B cells (Western blotting, phospho-NIK); type: cell-based
T1 construct: Proteins were extracted with cell lysate and used as samples; endogenous in cells; host or cells: primary splenic B cells from 6-week-old male Balb/c mice
T1 sequence (Q9WUL6 whole entry): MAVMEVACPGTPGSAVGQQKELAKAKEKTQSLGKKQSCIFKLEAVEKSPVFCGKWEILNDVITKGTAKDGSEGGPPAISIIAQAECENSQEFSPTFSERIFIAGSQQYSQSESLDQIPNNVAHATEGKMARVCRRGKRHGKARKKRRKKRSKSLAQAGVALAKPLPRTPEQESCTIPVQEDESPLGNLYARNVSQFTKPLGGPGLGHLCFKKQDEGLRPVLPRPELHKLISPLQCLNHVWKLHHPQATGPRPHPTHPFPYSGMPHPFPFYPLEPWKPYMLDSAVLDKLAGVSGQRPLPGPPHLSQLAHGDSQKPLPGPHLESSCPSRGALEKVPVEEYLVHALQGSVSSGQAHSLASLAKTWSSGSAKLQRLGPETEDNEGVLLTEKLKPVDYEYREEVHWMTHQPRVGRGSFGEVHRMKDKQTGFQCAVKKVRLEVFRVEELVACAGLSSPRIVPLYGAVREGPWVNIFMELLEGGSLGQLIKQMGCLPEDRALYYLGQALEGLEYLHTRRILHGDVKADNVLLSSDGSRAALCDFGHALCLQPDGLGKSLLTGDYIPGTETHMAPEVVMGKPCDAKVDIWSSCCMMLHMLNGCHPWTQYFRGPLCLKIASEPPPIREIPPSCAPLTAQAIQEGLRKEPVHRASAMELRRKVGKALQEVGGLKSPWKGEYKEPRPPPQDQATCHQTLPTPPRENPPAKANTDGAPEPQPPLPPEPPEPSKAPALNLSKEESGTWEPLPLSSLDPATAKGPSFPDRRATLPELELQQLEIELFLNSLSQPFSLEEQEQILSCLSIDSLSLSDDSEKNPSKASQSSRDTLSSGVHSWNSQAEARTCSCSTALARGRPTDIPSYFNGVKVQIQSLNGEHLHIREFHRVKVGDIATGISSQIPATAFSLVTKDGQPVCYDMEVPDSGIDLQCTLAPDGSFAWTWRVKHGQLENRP
Protocol: (§2) Spleens were harvested from 6-week-old male Balb/c mice and B cells were isolated. After isolation, the cells were seeded in […] dish and cultured in RPMI 1640 medium for 1 day and used as control. In addition, B cells were seeded into 100 mm^2 dish, and after 1 day of culture, 100 ng/mL BAFF was added and cultured for 1 h. Furthermore, B cells were seeded in […] dish, and after 1 day of culture, 100 μM mangiferin, 10 μM mangiferin 8a, 10 μM norathyriol, 20 μM 1,3,5,6-tetrahydroxyxanthone, 10 μM xanthohydrol, 10 μM of α-mangostin, and 10 μM of γ-mangostin were added to B cells, and after 23 h, 100 ng/mL BAFF was added to each, and the cells were incubated for 1 h. All were incubated at 37° C. and 5% CO2.
(§3) Proteins were extracted with cell lysate and used as samples. Each sample was transferred to a PVDF membrane after SDSPAGE and assayed with anti-phospho-NIK, anti-NIK, anti-NF-κB p52, anti-NF-κB p65 and anti-Lamin antibodies.
(§4) The antibody species is indicated in the vertical direction. Specifically, in the case of anti-phospho-NIK antibody (described as “Phospho-NIK”), anti-NIK antibody (described as “NIK”), anti-NF-κB p52 antibody (described as “NF-κB p52 nuclear”), anti-NF-κB p65 antibody (described as “NF-κB p65 nuclear”) and anti-Lamin antibody (described as “Lamin”).

Treg cells = assay: Treg cell activation in inflammation-induced mouse model (Foxp3 flow cytometry); type: in vivo; conditions: DBA/1J mice, Freund's complete adjuvant + bovine type2 collagen; oral 10 mg/kg daily 20 days; thymus cells; vs vehicle group
Protocol: Equal volume mixtures of Freund's complete adjuvant and Bovine type2 collagen were administered to 6-week-old male DBA/1J mice (Japan SLC Inc.) at 0.1 mL (day 0 of the study). 21 days later, DBA/1J mice were again injected with 0.1 mL of the above mixture for secondary immunization. After the second immunization, mice were orally treated with 10 mg/kg of mangiferin 8a and 10 mg/kg of norathyriol daily for 20 days. 20 days later, thymus glands were harvested from mice and stained with anti-CD4, anti-CD25 and anti-Foxp3 antibodies, which are Treg cell markers, and expression of Foxp3 (CD4 positive and CD25 positive) was measured using BD LSRFortessa.

NF-κB p52 = assay: BAFF-stimulated B cells, nuclear NF-κB p52 (Western blotting); type: cell-based, mouse; conditions: vs 100 ng/mL BAFF; 100 μM mangiferin, 20 μM 1,3,5,6-tetrahydroxyxanthone, 10 μM others
Protocol: as §2, §3, §4

mouse B cells = assay: LPS-stimulated B cell proliferation (trypan blue); type: cell-based; conditions: 10 μM compound, 10 μg/mL LPS 3 days, control 1.66×10^4, LPS 4.25×10^4
Protocol: The inhibitory effect of the compound on B cell proliferation was examined using mouse B cells.
B cells collected from mice were cultured in RPMI 1640 medium for 1 day. Then, 10 μM mangiferin 8a and 10 μM norathyriol were added to B cells, and after 1 day of culture, 10 μg/mL of lipopolysaccharide (LPS) was added to each for 3 days. After 3 days of incubation, the number of viable cells was determined by the trypan blue dye method. Note that LPS was used as an allergic inflammation inducer.
Referring to FIG. 48, the horizontal axis indicates treatment with each compound and the vertical axis indicates cell count (1×10^4 cells/mL). Only 0.5% DMSO in PBS, which was used to dissolve the reagent (compound), was added as control. The LPS group is referred to as the LPS group with 10 μg/mL LPS, the mangiferin 8a group is referred to as the mangiferin 8a group with LPS and mangiferin 8a, and the norathyriol group is referred to as the norathyriol group with LPS and norathyriol.

[3] = tested on: B cells collected from mice; assay: LPS-induced differentiation into mature B cells (IgM/IgD flow cytometry); type: cell-based, mouse; conditions: 10 μM compound, 10 μg/mL LPS, 10 days
Protocol: B cells collected from mice were cultured in RPMI 1640 medium for 1 day. Then, 10 μM mangiferin 8a and 10 μM norathyriol were added to B cell, and after 1 day of culture, 10 μg/mL of LPS was added, followed by 10 days of culture. After 10 days of culture, cells were stained with anti-IgM and anti-IgD antibodies, markers of B cells, and the expression of IgM and IgD was measured using BD LSRFortessa. Note that IgM negative and IgD negative indicates pre-B cells, IgM positive and IgD negative indicates immature B cells, and IgM positive and IgD positive indicates mature B cells.

phospho-NIK band (immunoblotting) (NIK; 100 ng/mL BAFF 1 h after 23 h compound, 100 μM mangiferin, 20 μM 1,3,5,6-tetrahydroxyxanthone, 10 μM others): fainter
Compound: O=c1c2cc(O)c(O)cc2oc2cc(O)cc(O)c12 [norathyriol, 1,3,6,7-tetrahydroxyxanthone]
CD138 expression [1]: significantly decreased CD138 expression | population IgM positive and IgD positive (mature B cells) ([2]; control 0, BAFF only 45.6): 0.062% | population IgM positive and IgD negative (immature B cells) ([2]; control 0.529, BAFF only 42.3): 1.46% | population IgM negative and IgD negative (pre-B cells) ([2]; control 99.5, BAFF only 11.7): 98.5% | inhibition of NIK activity compared with mangiferin (NIK; general statement in the description, referring to the examples): more inhibition of NIK activity than mangiferin | Foxp3 expression (CD4 positive and CD25 positive) (Treg cells): slightly increased | nuclear NF-κB p52 band (immunoblotting) (NF-κB p52): fainter | number of viable cells (cell count) (mouse B cells): 1.16×10^4 cells/mL | population IgM positive and IgD positive (mature B cells) ([3]; control 0.239, LPS only 20.7): 0.065% | population IgM positive and IgD negative (immature B cells) ([3]; control 1.91, LPS only 41.8): 2.14% | population IgM negative and IgD negative (pre-B cells) ([3]; control 96.7, LPS only 36.6): 97.7%
